A short description of series [1]: Oral dissolve acceptability / ALA burn of ALA lozenges and tablets in users. Particulars: salt added to, or salt form used in, oral dissolve ALA formulation.
Protocol: These tablets are circular, 9 mm in diameter, approximately 5 mm thick, having a weight of approximately 0.35 g and dissolution times of about 3.5 minutes.
Such NaCl-tablet and Non-Salt-tablet formulations being referred to as “NaCl-formulations” and “Non-Salt-formulation” respectively.
One way to specify or measure the difference resulting from the addition of any organic or inorganic salt (such as NaCl) to a formulation, is to measure the degree to which the Salt-formulation has less of an ALA burn than the Non-Salt-formulation when dissolved in the mouth.
For series [2] the following is noted: antacid taken with ALA taken orally (ingested); found by some individuals. An excerpt:
Some of the ALA in the saliva is swallowed during oral dissolve administration, therefore the esophagus and stomach encounter some ALA and may be irritated by it, particularly in humans and non-human species with sensitive stomachs.

For series [3] the following is noted: cited from earlier work.

The text below walks through data of US12702656B2, “ALA and salt formulation” (Molecular Product Management LLC, priority 2016, dated 2026).

For `[Cl-].[Na+]` [NaCl, sodium chloride], the “reduction of ALA burn (burning sensation in the mouth)” value in series [1] was “reduces the ALA burn during oral dissolution”.

Regarding `O=C([O-])CCCC[C@@H]1CCSS1.[Na+]` [Na—R-ALA], the “reduction of ALA burn (burning sensation in the mouth)” value in series [1] is “further reduction of the ALA burning and/or rawness problems”.

As to `O=C([O-])[O-].[Ca+2]` [calcium carbonate], the stomach irritation result in series [2] is listed as “reduces this stomach irritation”.

A word on the pKa: it is the negative logarithm of the acid dissociation constant. For `O=C(O)CCCCC1CCSS1` (stereo not drawn) [ALA, Alpha-lipoic acid], the pKa in series [3] is listed as 4.7.
